Experimental data: BindingDB's records for doi:10.1016/S0960-894X(96)00563-X (1996)

These molecules were tested against Tachykinin NK1 receptor (Bos taurus) (assay: Binding affinity against NK1 receptor by displacement of [3H]SP from bovine retina membranes).

Structure (SMILES)	IC50 [nM]
COc1ccc(C[C@@H]2C[C@@H](NCc3ccnc4ccccc34)CCN2C(=O)c2cc(C)cc(C)c2)cc1 [(3,5-Dimethyl-phenyl)-{(2R,4S)-2-(4-methoxy-benzyl)-4-[(quinolin-4-ylmethyl)-amino]-piperidin-1-yl}-methanone]	14
Cc1cc(C)cc(C(=O)N2CC[C@H](NCc3ccnc4ccccc34)C[C@H]2Cc2ccc(C(N)=O)cc2)c1 [4-{(2R,4S)-1-(3,5-Dimethyl-benzoyl)-4-[(quinolin-4-ylmethyl)-amino]-piperidin-2-ylmethyl}-benzamide]	100
Cc1cc(C)cc(C(=O)N2CC[C@H](NCc3ccnc4ccccc34)C[C@H]2Cc2ccc([N+](=O)[O-])cc2)c1 [(3,5-Dimethyl-phenyl)-{(2R,4S)-2-(4-nitro-benzyl)-4-[(quinolin-4-ylmethyl)-amino]-piperidin-1-yl}-methanone]	3
Cc1cc(C)cc(C(=O)N2CC[C@H](NCc3ccnc4ccccc34)C[C@H]2Cc2ccc(C#N)cc2)c1 [4-{(2R,4S)-1-(3,5-Dimethyl-benzoyl)-4-[(quinolin-4-ylmethyl)-amino]-piperidin-2-ylmethyl}-benzonitrile]	21
Cc1cc(C)cc(C(=O)N2CC[C@H](NCc3ccnc4ccccc34)C[C@H]2Cc2ccc(Cl)cc2)c1 [{(2R,4S)-2-(4-Chloro-benzyl)-4-[(quinolin-4-ylmethyl)-amino]-piperidin-1-yl}-(3,5-dimethyl-phenyl)-methanone]	13
Cc1cc(C)cc(C(=O)N2CC[C@H](NCc3ccnc4ccccc34)C[C@H]2Cc2ccc3ccccc3c2)c1 [(3,5-Dimethyl-phenyl)-{(2R,4S)-2-naphthalen-2-ylmethyl-4-[(quinolin-4-ylmethyl)-amino]-piperidin-1-yl}-methanone]	14
Cc1cc(C)cc(C(=O)N2CC[C@H](NCc3ccnc4ccccc34)C[C@H]2Cc2ccc(Cl)cc2Cl)c1 [{(2R,4S)-2-(2,4-Dichloro-benzyl)-4-[(quinolin-4-ylmethyl)-amino]-piperidin-1-yl}-(3,5-dimethyl-phenyl)-methanone]	600
Cc1cc(C)cc(C(=O)N2CC[C@H](NCc3ccnc4ccccc34)C[C@H]2CCc2ccccc2)c1 [(3,5-Dimethyl-phenyl)-{(2R,4S)-2-phenethyl-4-[(quinolin-4-ylmethyl)-amino]-piperidin-1-yl}-methanone]	190
COc1cccc(C[C@@H]2C[C@@H](NCc3ccnc4ccccc34)CCN2C(=O)c2cc(C)cc(C)c2)c1 [(3,5-Dimethyl-phenyl)-{(2R,4S)-2-(3-methoxy-benzyl)-4-[(quinolin-4-ylmethyl)-amino]-piperidin-1-yl}-methanone]	27
Cc1cc(C)cc(C(=O)N2CC[C@H](NCc3ccnc4ccccc34)C[C@H]2Cc2cc(Br)cc(Br)c2)c1 [{(2R,4S)-2-(3,5-Dibromo-benzyl)-4-[(quinolin-4-ylmethyl)-amino]-piperidin-1-yl}-(3,5-dimethyl-phenyl)-methanone]	52
Cc1cc(C)cc(C(=O)N2CC[C@H](NCc3ccnc4ccccc34)C[C@H]2Cc2ccc(C(F)(F)F)cc2)c1 [(3,5-Dimethyl-phenyl)-[(2R,4S)-4-[(quinolin-4-ylmethyl)-amino]-2-(4-trifluoromethyl-benzyl)-piperidin-1-yl]-methanone]	11
Cc1cc(C)cc(C(=O)N2CC[C@H](NCc3ccnc4ccccc34)C[C@H]2Cc2ccc(Cl)c(Cl)c2)c1 [{(2R,4S)-2-(3,4-Dichloro-benzyl)-4-[(quinolin-4-ylmethyl)-amino]-piperidin-1-yl}-(3,5-dimethyl-phenyl)-methanone]	9
